Measured values: patent US8765431B2, “Method for enzymatic production of decarboxylated polyketides and fatty acids” (The Regents of the University of Michigan, priority 2009, dated 2014)

Tests used:
[1] = test system: CurM ST and TE; test: Coupled ST-TE one-pot reaction (HPLC, LC-MS); type: biochemical, Lyngbya majuscula; conditions: from model substrate (3R)-1-ACP
Protocol: With the order of the ST and TE reactions established for the acyl-ACP intermediate, the next investigation was to couple the two reactions in one pot. […] Under the same reaction conditions, it was discovered that the CurM TE catalyzed hydrolysis reaction with sulfonated product (3R)-2-ACP was about 800-fold faster than with (3R)-1-ACP. Moreover, TE catalyzed hydrolysis of (3R)-2-ACP was about 120-fold faster than (3S)-2-ACP (FIG. 7).
(§1) Next, experiments were performed to assess whether the proposed sulfonated intermediate (3R)-2 (FIG. 3A) is released following hydrolysis of (3R)-2-ACP, or whether formation of 3 (FIG. 3B) occurs directly by a coordinated decarboxylative elimination process. First, the ST-TE coupled reactions with (3R)-1-ACP were analyzed by LC-MS and a single product was confirmed to be (3R)-2 by co-injection with the corresponding authentic standard (FIG. 3A iii). Due to the expected volatility of 3, the contents of the coupled reaction were extracted with hexane and analyzed by GC-MS. A second product was thus detected and confirmed to be 3 by co-injection with the corresponding authentic standard (FIG. 3B iv). […]
(§2) The ST and TE assays were performed using R)-1-ACP and (3S)-1-ACP substrates. […] All the reactions were incubated at room temperature, quenched by addition of 10% formic acid, and analyzed by reverse-phase HPLC using Jupiter C4 column. […]

[2] = test system: CurM TE; test: TE-catalyzed decarboxylative elimination to 3 (GC-MS); type: biochemical, Lyngbya majuscula; conditions: in 1 hour; free authentic (synthetic) substrate
Protocol: as §1, with “First, the ST-TE coupled reactions with (3R)-1-ACP were analyzed by LC-MS and a single product was confirmed to be (3R)-2 by co-injection with the corresponding authentic standard (FIG. 3A iii).” left out
as §2, with “column. The ACP fractions were collected, lyophilized and analyzed by FTICR-MS and IRMPD.” for “column.”
The samples and authentic standard were analyzed by a 6890N gas chromatograph equipped with a 5973 mass selective quadrupole detector (Agilent). […] Total ion chromatograms were recorded using a mass range of 60-420 amu, and the selective ion chromatograms were recorded by monitoring the two to three most abundant masses plus the parent masses of target compounds.

`CCCCCCCCCC(C[C@H](CC(=O)O)OS(=O)(=O)O)OC` (mixture of isomers) [(3R)-2, (3R,5RS)-3-Sulfonatooxy-5-methoxytetradecanoic acid] was tested, and the “Level of (3R)-2 as a product of the TE reaction” value [1] was “greater than 50%” and the “Conversion to 3 by TE” value [2] was “about 2 % conversion”.
